Literature values, collected in paper PMC7395068, “The evolution of strategies to minimise the risk of human drug-induced liver injury (DILI) in drug discovery and development” (Archives of Toxicology, 2020).
Where two headings read alike, the source gives them in different places.

What was measured:
[1] = tested on: HepG2 cells; conditions: cited from earlier work; for Structural based (HCI), In vitro Assay: HepG2 HCI
[2] = tested on: human hepatocytes; conditions: cited from earlier work
[3] = tested on: HepG2 cells; conditions: cited from earlier work
[4] = cited from earlier work
[5] = tested on: isolated mouse liver mitochondria; conditions: cited from earlier work
[6] = cited from earlier work; remark: listed apart in the source
[7] = tested on: THLE or HepG2 cells, isolated mitochondria, BSEP; conditions: cited from earlier work
[8] = In vitro Assay, ref O'Brien 2006
[9] = assignment in O'Brien 2006, ref O'Brien 2006

Structure (SMILES): Nc1ccc(C(=O)O)c(O)c1 [aminosalycilate]
- Structural based (HCI) [1]: +VE (key: +VE: lowest HCI endpoint IC50 (or in the absence of dose–response < 100 µM) < 30 × total human plasma exposure levels (Cmax.tot))

Structure (SMILES): O=C(O)CCCC[C@@H]1SC[C@@H]2NC(=O)N[C@@H]21 [biotin]
- Structural based (HCI) [2]: -VE
- Cluser analysis [3]: -VE
- Structural based (HCI) [3]: -VE
- In vivo DILI ([4]; in vivo): -VE
- in vitro data EC20<=2uM [5]: -VE

Structure (SMILES): CC(C)(O/N=C(\C(=O)N[C@@H]1C(=O)N2C(C(=O)[O-])=C(C[n+]3ccccc3)CS[C@H]12)c1csc(N)n1)C(=O)O [ceftazidime]
- Structural based (HCI) [1, 8]: +VE (lowest HCI endpoint IC50 (or in the absence of dose–response < 100 µM) < 30 × total human plasma exposure levels (Cmax.tot))
- In vivo DILI ([4]; […]): +VE
- In vivo DILI ([4]; ref O'Brien 2006): +VE
- DILI +VE (5-8), DILI -VE (-4) ([6]; ref Chen 2016): +VE
- DILI severity category ([6]; ref Chen 2016): vLess-DILI-Concern

Structure (SMILES): COCc1c(C(C)C)nc(C(C)C)c(/C=C/[C@@H](O)C[C@@H](O)CC(=O)O)c1-c1ccc(F)cc1 [cerivastatin]
- Structural based (HCI) [1]: +VE (key: +VE: lowest HCI endpoint IC50 (or in the absence of dose–response < 100 µM) < 30 × total human plasma exposure levels (Cmax.tot))
- In vivo DILI ([4]; ref O'Brien 2006): +VE

Structure (SMILES): Oc1c(I)cc(Cl)c2cccnc12 [clioquinol]
- Structural based (HCI) [1, 8]: +VE (lowest HCI endpoint IC50 (or in the absence of dose–response < 100 µM) < 30 × total human plasma exposure levels (Cmax.tot))
- In vivo DILI ([4]; ref O'Brien 2006): -VE

Structure (SMILES): CCOC(=O)[C@H](CCc1ccccc1)N[C@@H](C)C(=O)N1CCC[C@H]1C(=O)O [enalapril]
- Structural based (HCI) [1, 8]: +VE (lowest HCI endpoint IC50 (or in the absence of dose–response < 100 µM) < 30 × total human plasma exposure levels (Cmax.tot))
- In vivo DILI ([4]; ref O'Brien 2006): +VE
- DILI +VE (5-8), DILI -VE (-4) ([6]; ref Chen 2016): +VE
- DILI severity category ([6]; ref Chen 2016): vLess-DILI-Concern

Structure (SMILES): CC[C@]1(O)CC[C@H]2[C@@H]3CCC4=CCCC[C@@H]4[C@H]3CC[C@@]21C [ethylestrenol]
- Structural based (HCI) [1, 8]: +VE (lowest HCI endpoint IC50 (or in the absence of dose–response < 100 µM) < 30 × total human plasma exposure levels (Cmax.tot))
- In vivo DILI ([4]; ref O'Brien 2006): +VE

Structure (SMILES): CCNC(C)Cc1cccc(C(F)(F)F)c1 (stereo not drawn) [fenfluramine]
- Structural based (HCI) [1, 8]: -VE
- In vivo DILI ([4]; ref O'Brien 2006): -VE

Structure (SMILES): O=C(O)c1ccccc1Nc1cccc(C(F)(F)F)c1 [flufenamate]
- Structural based (HCI) [1, 8]: +VE (lowest HCI endpoint IC50 (or in the absence of dose–response < 100 µM) < 30 × total human plasma exposure levels (Cmax.tot))
- In vivo DILI ([4]; ref O'Brien 2006): -VE

Structure (SMILES): O=C(O)P(=O)(O)O [foscarnet]
- Structural based (HCI) [1, 8]: +VE (lowest HCI endpoint IC50 (or in the absence of dose–response < 100 µM) < 30 × total human plasma exposure levels (Cmax.tot))
- In vivo DILI ([4]; ref O'Brien 2006): -VE
- DILI +VE (5-8), DILI -VE (-4) ([6]; ref Chen 2016): -VE
- DILI severity category ([6]; ref Chen 2016): Ambiguous DILI-concern

Structure (SMILES): FC(F)(F)C(Cl)Br (stereo not drawn) [halothane]
- Structural based (HCI), In vitro Assay ([1]; ref O'Brien 2006): +VE
- In vivo DILI [4, 9]: -VE

Structure (SMILES): NNc1nncc2ccccc12 [hydralazine]
- Structural based (HCI) [1, 8]: +VE (lowest HCI endpoint IC50 (or in the absence of dose–response < 100 µM) < 30 × total human plasma exposure levels (Cmax.tot))
- In vivo DILI ([4]; […]): +VE
- In vivo DILI ([4]; ref O'Brien 2006): +VE
- DILI +VE (5-8), DILI -VE (-4) ([6]; ref Chen 2016): +VE
- DILI severity category ([6]; ref Chen 2016): vLess-DILI-Concern

Structure (SMILES): CC(C(=O)O)c1ccc(N2Cc3ccccc3C2=O)cc1 (stereo not drawn) [indoprofen]
- Structural based (HCI), In vitro Assay ([1]; ref O'Brien 2006): +VE
- In vivo DILI [4, 9]: -VE

Structure (SMILES): NC[C@H]1O[C@H](O[C@H]2[C@H](O)[C@@H](O[C@H]3O[C@H](CO)[C@@H](O)[C@H](N)[C@H]3O)[C@H](N)C[C@@H]2N)[C@H](O)[C@@H](O)[C@@H]1O [kanamycin]
- Structural based (HCI) [1]: +VE
- Partition Hybrid HRM Score [7]: -VE
- Ro2 Hybrid HRM Score [7]: -VE

Structure (SMILES): CC12CC3CC(C)(C1)CC(N)(C3)C2 [memantine]
- Structural based (HCI) [1, 8]: -VE
- Structural based (HCI) ([2]; In vitro Assay, ref Xu 2008): -VE
- In vivo DILI ([4]; ref O'Brien 2006): -VE
- In vivo DILI ([4]; ref Xu 2008): -VE
- DILI +VE (5-8), DILI -VE (-4) ([6]; ref Chen 2016): +VE
- DILI severity category ([6]; ref Chen 2016): vLess-DILI-Concern

Structure (SMILES): C=C1c2cccc(O)c2C(=O)C2=C(O)[C@]3(O)C(=O)C(C(N)=O)=C(O)[C@@H](N(C)C)[C@@H]3[C@@H](O)[C@H]12 [methacycline]
- Structural based (HCI) [1, 8]: +VE (lowest HCI endpoint IC50 (or in the absence of dose–response < 100 µM) < 30 × total human plasma exposure levels (Cmax.tot))
- Structural based (HCI) ([2]; In vitro Assay, ref Xu 2008): +VE
- In vivo DILI ([4]; ref O'Brien 2006): +VE
- In vivo DILI ([4]; ref Xu 2008): +VE

Structure (SMILES): CCN(CC)CCNC(=O)c1cc(Cl)c(N)cc1OC [metoclopramide]
- Structural based (HCI) [1]: -VE
- DILI +VE (5-8), DILI -VE (-4) ([6]; in vivo): +VE
- DILI severity category ([6]; in vivo): vLess-DILI-Concern
